The source of these data is patent US11691989B2, “Macrocyclic indoles as Mcl-1 inhibitors” (ASCENTAGE PHARMA (SUZHOU) CO., LTD., priority 2018, dated 2023).

The target of data set [1] is Mcl-1 protein (residues 171-323) (Homo sapiens (Human), UniProt Q07820). In words: Inhibition of Mcl-1 by fluorescence polarization (FP) competitive binding assay with FAM-Bid tracer. To be noted: 2 nM FAM-Bid, 20 nM Mcl-1, 30 min, read-out: Mc1-1 (FP). How it is done:
Inhibition of Mcl-1 by fluorescence polarization (FP) assay.
The method used a fluorescein labelled peptide (FAM-Bid) which binds to the Mcl-1 protein leading to an increased anisotropy measured in milli-polarization (mP) values using a plate reader.
A 10-points serial dilution of each compound was prepared in DMSO and 5 μL solution was transferred into flat bottomed, 96-well back plate (final DMSO concentration 5%). 120 μL of Buffer (PBS, 0.01% BGG (Sigma Cat. #SRE0011), 0.01% Triton X-100), containing the Fluorescein labelled peptide (Final concentration 2 nM) and Mcl-1 protein (final concentration 20 nM) was then added. […] 10-points dose response curves were plotted with GraphPad software using Sigmoidal Dose-Response Model and the IC50 values were determined by nonlinear regression fitting of the competition curves.

Data set [2] is described as follows: Microsome clearance assay, human. Format: in vitro ADME. The following applies: 0.5 mg/ml protein, 1 mM NADPH, 60 minutes; for microsomal CLint at 5 μM: human, pooled liver microsomes, pH 7.4, human liver microsomes, read-out: Human Liver Microsome Clint (μL/min/mg protein). How it is done: (§1) Representative Compounds of the Disclosure were tested in a microsome clearance assay. Pooled liver microsomes (20 mg/ml) from human, male Wister rat, and male CD-1 mouse were obtained from BD Bioscience (Franklin Lakes, N.J. USA). Incubation reaction mixtures contained a final concentration of 0.1M sodium phosphate buffer (pH 7.4), 0.5 mg/ml microsomal protein, 5 μM of test sample and 1 mM NADPH in a total volume of 400 μl. The incubations were done for 60 minutes and 300 μl of the mixtures was transferred to 150 μl of ice cold methanol to terminate reactions. After vortexes for 3 minutes and centrifuged at 4000 rpm at 4° C. for 10 minutes, the clear supernatant was used directly for analysis. The samples were analyzed by Applied Biosystems API 3200 Q TRAP LC/MS/MS system using electrospray ionization mode.
On the technique in general: Microsomes from liver hold many membrane-bound enzymes, among them those of drug oxidation.

A short description of data set [3]: Microsome clearance assay, mouse. The data set is classed as in vitro ADME. To be noted: 0.5 mg/ml protein, 1 mM NADPH, 60 minutes; for microsomal CLint at 5 μM: male, CD-1, mouse, pooled liver microsomes, pH 7.4, mouse liver microsomes, read-out: Mouse Liver Microsome Clint (μL/min/mg protein). The procedure:
as §1

A further data set relates to OPM-2 cells. The experiment in a line: Cell viability assay (OPM-2 cells), CCK-8. Format: cell-based. The following applies: 5% FBS. The procedure: Cell Viability Assay (OPM-2 cells)
OPM-2 cells were obtained from Deutsche Sammlung von Mikroorganismen and Zellkulturen GmbH (DSMZ). Cells were maintained in the recommended culture medium with 10% FBS at 37° C. and an atmosphere of 5% CO2.
The effect of representative Compounds of the Disclosure on cell viability was determined using Cell Counting Kit-8 (CCK-8) assay (Shanghai Life iLab Bio Technology) according to the manufacturer's instructions. Each tested compound was serially diluted in culture medium, 100 μL of the compound dilution was added into 96-well plates. 100 μL of an OPM-2 cell suspension (20000 cells/well) in culture medium were seeded into the corresponding well of the plate and the cells were incubated at 37° C. in an atmosphere of 5% CO2 for 24 hours. In the next day, 20 μL of CCK-8 solution was added to each well of the plate and incubated for 4 hours.
The plates were read at 450 nm on the microplate spectrophotometer (SpectraMax plus 384, Molecular devices). The readings were normalized to the vehicle cells, and the IC50 was calculated by nonlinear regression analysis using GraphPad Prism 6 software.

Data set [4] in a line: Microsome clearance assay, rat. The data set is classed as in vitro ADME. To be noted: 0.5 mg/ml protein, 1 mM NADPH, 60 minutes; for microsomal CLint at 5 μM: male, Wister, rat, pooled liver microsomes, pH 7.4, rat liver microsomes, read-out: Rat Liver Microsome Clint (μL/min/mg protein). How it is done: as §1
In another data set the test system is NCI-H929 cells. The experiment in a line: Cell viability assay (NCI-H929 cells), CCK-8. The following applies: 5% FBS. Format: cell-based. How it is done: Cell Viability Assay (NCI-H929 cells)
NCI-H929 cells were obtained from American Type Culture Collection (ATCC). Cells were maintained in the recommended culture medium (RPMI 1640) with 10% FBS and 0.05 mM BME at 37° C. and an atmosphere of 5% CO2.
The effect of Compounds on cell viability was determined using Cell Counting Kit-8 (CCK-8) assay according to the manufacturer's instructions. 95 μL of NCI-H929 cell suspension (20000 cells/well) in culture medium were seeded into 96-well plates and cultured 4 hrs. Each tested compound was serially diluted in DMSO, then 5 μL of the compound or DMSO was diluted in 95 μL medium once more. At last, 5 μL of the compound dilution was added to the corresponding well of the cell plate. After the addition of the tested compound, the cells were incubated at 37° C. in an atmosphere of 5% CO2 for 24 hrs. At the end, 10 μL of CCK-8 solution was added to each well of the plate and incubated for 1-4 hours. The plates were read at 450 nm on the microplate reader (BioTek Synergy 1MF). The readings were normalized to the vehicle cells, and the IC50 was calculated by nonlinear regression analysis using GraphPad Prism 6 software.

Mcl-1 protein (residues 171-323), sequence (Q07820 171-323): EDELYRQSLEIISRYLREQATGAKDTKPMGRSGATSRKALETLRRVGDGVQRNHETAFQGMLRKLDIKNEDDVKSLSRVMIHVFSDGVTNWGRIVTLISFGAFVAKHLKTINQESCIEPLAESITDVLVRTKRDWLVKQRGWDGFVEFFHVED

With `Cc1c(C(=O)O)n2c3ccc(Cl)c(c13)-c1c(nn(C)c1C)CN(S(=O)(=O)C(F)(F)F)Cc1cc(n(C)n1)CSc1cc(c3ccc(F)cc3c1)OCCC2` [Cpd. No. 35, (Z)-1^5-chloro-9^6-fluoro-1^3,2^1,2^5,6^1-tetramethyl-4-((trifluoromethyl)sulfonyl)-1^1H,2^1H,6^1H-10-oxa-8-thia-4-aza-1(4,1)-indola-2(4,3),6(3,5)-dipyrazola-9(3,1)-naphthalenacyclotridecaphane-1^2-carboxylic acid], the IC50 worked out at 0.015 µM in data set [1]; 0.057 µM with OPM-2 cells (Homo sapiens, OPM-2, 24 h); 0.025 µM in the data set with NCI-H929 cells (Homo sapiens, NCI-H929, 24 h). The microsomal CLint at 5 μM amounted to 53.2 µL/min/mg in data set [2], 156 µL/min/mg in data set [3] and 42 µL/min/mg in data set [4].

In the case of `Cc1c(C(=O)O)n2c3ccc(Cl)c(c13)-c1c(nn(C)c1C)CSCc1cc(n(C)n1)CSc1cc(c3ccc(F)cc3c1)OCCC2` (atropisomer, axis not shown) [Cpd. No. 16, (S)-(Z)-1^5-chloro-9^6-fluoro-1^3,2^1,2^5,6^1-tetramethyl-1^111,2^1H,6^1H-10-oxa-4,8-dithia-1(4,1)-indola-2(4,3),6(3,5)-dipyrazola-9(3,1)-naphthalenacyclotridecaphane-1^2-carboxylic acid], the figures for the IC50 (in data set [1]; in the data set with OPM-2 cells (24 hours); in the data set on NCI-H929 cells (24 hrs)) were 3.2 µM, 4.05 µM and 2.24 µM, respectively. In addition, in data set [2] (human liver microsomes, 5 μM), the “Human Liver Microsome Clint (μL/min/mg protein)” value was 23.4 μL/min/mg protein. In addition, in data set [3] (mouse liver microsomes, 5 μM), the “Mouse Liver Microsome Clint (μL/min/mg protein)” value came out at 135 μL/min/mg protein. Besides, the “Rat Liver Microsome Clint (μL/min/mg protein)” value in data set [4] (rat liver microsomes, 5 μM) is 64.6 μL/min/mg protein.

On to `Cc1c(C(=O)O)n2c3ccc(Cl)c(c13)-c1c(nn(C)c1C)CN(S(C)(=O)=O)Cc1cc(n(C)n1)CSc1cc(c3ccccc3c1)OCCC2` [Cpd. No. 46, (Z)-1^5-chloro-1^3,2^1,2^5,6^1-tetramethyl-4-(methylsulfonyl)-1^11-1,2^1H,6^1H-10-oxa-8-thia-4-aza-1(4,1)-indola-2(4,3),6(3,5)-dipyrazola-9(3,1)-naphthalenacyclotridecaphane-1^2-carboxylic acid], for which the IC50 in data set [1] was found to be 0.008 µM; with OPM-2 cells (Homo sapiens, OPM-2, 24 h), 0.637 µM; in the data set with NCI-H929 cells (Homo sapiens, NCI-H929, 24 h) it was 0.3 µM. For the same molecule, the microsomal CLint at 5 μM was determined as 8 µL/min/mg in data set [2], 43.4 µL/min/mg in data set [3] and 21.6 µL/min/mg in data set [4].

In the case of `Cc1c(C(=O)O)n2c3ccc(Cl)c(c13)-c1c(nn3c1COCC3)CSCc1cc(n(C)n1)CSc1cc(c3ccccc3c1)OCCC2` [Cpd. No. 1, (Z)-1^5-chloro-1^3,6^1-dimethyl-2^6,2^7-dihydro-1^1H,2^4H,6^1H-10-oxa-4,8-dithia-2(3,2)-pyrazolo[5,1-c][1,4]oxazina-1(4,1)-indola-6(3,5)-pyrazola-9(3,1)-naphthalenacyclotridecaphane-1^2-carboxylic acid], the IC50 came to 0.007 µM in data set [1]; 1.54 µM in the data set on OPM-2 cells (Homo sapiens, OPM-2, 24 h); 0.165 µM in the data set on NCI-H929 cells (Homo sapiens, NCI-H929, 24 h). The microsomal CLint at 5 μM in data set [2] is 35.2 µL/min/mg; in data set [3], 49 µL/min/mg; in data set [4] it was 34.4 µL/min/mg.

Consider `Cc1ccc2c3c(C)c(C(=O)O)n2CCCOc2cc(cc4cc(F)ccc24)SCc2cc(nn2C)CSCc2nn(C)c(C)c2-c13` [Cpd. No. 22, (Z)-9^6-fluoro-1^3, 1^5,2^1,2^5,6^1-pentamethyl-1^1H,2^1H,6^1H-10-oxa-4,8-dithia-1(4,1)-indola-2(4,3), 6(3,5)-dipyrazola-9(3,1)-naphthalenacyclotridecaphane-1^2-carboxylic acid], for which the IC50 in data set [1] was 0.015 µM; in the data set with OPM-2 cells (Homo sapiens, OPM-2, 24 h), 0.073 µM; in the data set with NCI-H929 cells (Homo sapiens, NCI-H929, 24 h), 0.061 µM. Moreover, the microsomal CLint at 5 μM came out at 11.8 µL/min/mg in data set [2], 32 µL/min/mg in data set [3] and 30.8 µL/min/mg in data set [4].

For `Cc1c(C(=O)O)n2c3ccc(Cl)c(c13)-c1c(nn3c1COCC3)CN(S(=O)(=O)c1ccccc1)Cc1cc(n(C)n1)CSc1cc(c3ccc(F)cc3c1)OCCC2` [Cpd. No. 29, (Z)-1^5-chloro-9^6-fluoro-1^3, 6^1-di methyl-4-(phenylsulfonyl)-26,27-dihydro-1^1H,2^4H,6^1H-10-oxa-8-thia-4-aza-2(3,2)-pyrazolo[5,1-c][1,4]oxazina-1(4,1)-indola-6(3,5)-pyrazola-9(3,1)-naphthalenacyclotridecaphane-1^2-carboxylic acid], the IC50 in data set [1] came to 0.035 µM; in the data set with OPM-2 cells (Homo sapiens, OPM-2, 24 h), 1.9 µM; in the data set on NCI-H929 cells (Homo sapiens, NCI-H929, 24 h), 0.621 µM. Also, the microsomal CLint at 5 μM in data set [2] was 21.4 µL/min/mg; in data set [3] it was 54.6 µL/min/mg; in data set [4], 42 µL/min/mg.

Turning to `CC(=O)NCc1c(C(=O)O)n2c3ccc(Cl)c(c13)-c1c(nn(C)c1C)CSCc1cc(n(C)n1)CSc1cc(c3ccccc3c1)OCCC2` [Cpd. No. 12, (Z)-1^3-(acetamidomethyl)-1^5-chloro-2^1,2^5,6^1-trimethyl-1^1H,2^1H,6^1E-10-oxa-4,8-dithia-1(4,1)-indola-2(4,3),6(3,5)-dipyrazola-9(3,1)-naphthalenacyclotridecaphane-1^2-carboxylic acid], the IC50 was found to be 0.018 µM in data set [1]; 9.86 µM in the data set on OPM-2 cells (Homo sapiens, OPM-2, 24 h); 0.273 µM in the data set with NCI-H929 cells (Homo sapiens, NCI-H929, 24 h). Besides, the microsomal CLint at 5 μM in data set [2] turned out to be 3.6 µL/min/mg; in data set [3] it was 13.8 µL/min/mg; in data set [4], 30.6 µL/min/mg.

On to `Cc1c(C(=O)O)n2c3ccc(Cl)c(c13)-c1c(nn3c1COCC3)CN(S(=O)(=O)C1CC1)Cc1cc(n(C)n1)CSc1cc(c3ccc(F)cc3c1)OCCC2` [Cpd. No. 31, (Z)-1^5-chloro-4-(cyclopropylsulfonyl)-9^6-fluoro-1^3, 6^1-di methyl-2^6,2^7-dihydro-1^1H,2^4H,6^1H-10-oxa-8-thia-4-aza-2(3,2)-pyrazolo[5,1-c][1,4]oxazina-1(4,1)-indola-6(3,5)-pyrazola-9(3,1)-naphthalenacyclotridecaphane-1^2-carboxylic acid], for which the IC50 was 0.016 µM in data set [1]; 1.94 µM in the data set with OPM-2 cells (Homo sapiens, OPM-2, 24 h); 0.623 µM with NCI-H929 cells (Homo sapiens, NCI-H929, 24 h). For the same molecule, the values for the microsomal CLint at 5 μM in data set [2], in data set [3] and in data set [4] were 7.4 µL/min/mg, 45.2 µL/min/mg and 33 µL/min/mg, respectively.
